Marks after values point to notes of the source that are not given here. One block for each molecule: values may come before it.
Columns and labels:
[1] = molecular target: T1, xanthine oxidase (XO) (Bos taurus, UniProt P80457); experiment: XO inhibitory activity assay (rate of uric acid formation, absorbance 290 nm); format: biochemical; conditions: peptide 5 mM; XO 0.05 U/mL, pre-incubation 37 °C 30 min, xanthine 0.42 mM, 20 mM sodium carbonate buffer pH 7.5, 290 nm; each sample tested three times
T1 construct: purchased Sigma Chemical Co. (St. Louis, MO, USA)
T1 sequence (P80457 whole entry): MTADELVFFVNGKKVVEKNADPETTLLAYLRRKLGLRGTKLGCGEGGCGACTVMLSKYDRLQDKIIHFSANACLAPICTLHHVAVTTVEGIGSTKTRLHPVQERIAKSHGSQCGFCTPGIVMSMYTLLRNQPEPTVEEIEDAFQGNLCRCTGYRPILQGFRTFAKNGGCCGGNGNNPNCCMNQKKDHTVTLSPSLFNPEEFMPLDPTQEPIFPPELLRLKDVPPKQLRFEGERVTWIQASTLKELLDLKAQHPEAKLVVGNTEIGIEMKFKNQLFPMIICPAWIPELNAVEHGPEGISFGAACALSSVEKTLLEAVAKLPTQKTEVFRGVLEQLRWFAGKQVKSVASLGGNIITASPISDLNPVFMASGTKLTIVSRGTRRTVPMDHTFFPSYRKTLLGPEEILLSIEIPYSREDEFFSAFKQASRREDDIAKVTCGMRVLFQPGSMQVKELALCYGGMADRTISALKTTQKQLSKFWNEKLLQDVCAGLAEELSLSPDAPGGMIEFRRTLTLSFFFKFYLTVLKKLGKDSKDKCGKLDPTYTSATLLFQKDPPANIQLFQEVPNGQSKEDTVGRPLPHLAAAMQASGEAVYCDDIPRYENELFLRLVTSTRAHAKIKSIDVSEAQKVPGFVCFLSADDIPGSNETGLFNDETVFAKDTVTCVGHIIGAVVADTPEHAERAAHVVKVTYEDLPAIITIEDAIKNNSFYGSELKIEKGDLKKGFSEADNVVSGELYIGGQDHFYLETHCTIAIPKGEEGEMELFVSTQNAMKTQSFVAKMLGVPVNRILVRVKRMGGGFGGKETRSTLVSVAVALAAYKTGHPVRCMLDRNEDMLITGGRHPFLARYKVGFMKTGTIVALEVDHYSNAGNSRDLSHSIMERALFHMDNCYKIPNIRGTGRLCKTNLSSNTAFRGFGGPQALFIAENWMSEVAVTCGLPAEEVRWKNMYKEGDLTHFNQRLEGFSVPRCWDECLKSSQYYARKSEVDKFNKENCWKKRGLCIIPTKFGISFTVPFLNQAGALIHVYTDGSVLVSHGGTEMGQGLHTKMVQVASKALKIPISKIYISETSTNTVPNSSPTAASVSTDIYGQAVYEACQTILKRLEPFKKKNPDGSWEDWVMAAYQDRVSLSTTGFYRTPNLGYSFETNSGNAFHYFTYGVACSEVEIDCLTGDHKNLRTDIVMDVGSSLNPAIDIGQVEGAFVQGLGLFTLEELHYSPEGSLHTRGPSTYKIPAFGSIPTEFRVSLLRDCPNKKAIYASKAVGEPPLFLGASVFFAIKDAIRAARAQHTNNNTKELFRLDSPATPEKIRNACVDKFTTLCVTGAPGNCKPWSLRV
Protocol: The XO inhibitory activity was measured by quantifying the rate of uric acid produced in the enzyme-catalyzed reaction. All samples were dissolved in 20 mM sodium carbonate buffer at pH 7.5. […] During the reaction, the dynamic changes of the absorbance of the sample were continuously recorded at 290 nm. Each sample was tested three times. The XO inhibitory activity was calculated using the following formula:Inhibition (%) = (V1 − V2)/V1 × 100%(1) where V1 is the initial enzymatic reaction rate of the blank group, V2 is the initial enzymatic reaction rate of sample group.

[2] = molecular target: T1, xanthine oxidase (XO); experiment: Fluorescence quenching of XO (Stern-Volmer analysis); format: binding; conditions: for Kq (quenching rate constant) / Ksv (Stern-Volmer quenching constant): T 298 K; for Kq (quenching rate constant): Kq = Ksv/τ0, τ0 approximately 10^−8 s; for Ksv (Stern-Volmer quenching constant): XO 0.05 U/mL, peptide 0 to 20.0 × 10^−4 M, excitation 280 nm; for fluorescence quenching mechanism of XO: from Kq versus the collisional quenching threshold
Protocol: Fluorescence spectra were measured on an F-7000 Spectrofluorimeter (Hitachi Ltd., Ibaraki, Japan) with a 1.0 cm quartz cell and a thermostatic bath. Briefly, 2 mL XO (0.05 U/mL) was titrated by continuous addition of peptides solution (to final concentrations ranging from 0 to 20.0 × 10^−4 M). Then, the obtained mixture was properly mixed and equilibrated for 5 min. The slit widths for excitation and emission were set to 2.5 nm. The fluorescence emission spectra were then measured in the emission wavelength range from 300 to 500 nm, under 280 nm excitation wavelengths. The following Stern-Volmer equation was used to analyze the fluorescence quenching:F0/F = 1 + Ksv [C] = 1 + Kq τ0 [C](3) where F0 and F represent the steady-state fluorescence intensities in the absence and presence of quencher, respectively. Ksv is the Stern-Volmer quenching constant. [C] is the quencher concentration. Kq is the quenching rate constant of biomolecule. Kq = Ksv/τ0, τ0 is the average lifetime of biomolecule in the absence of quencher and its value is approximately 10^−8 s. Ksv used to be estimated by linear regression plot slope of F0/F versus.

[3] = molecular target: T1, xanthine oxidase (XO); experiment: Reversibility and type of XO inhibition (v vs enzyme plots; Lineweaver-Burk plots); format: biochemical; conditions: for type of XO inhibition: Lineweaver-Burk, peptide 0 and 5 mM, XO 0.05 U/mL, xanthine 0-0.4 mM, Km increased, Vmax decreased; for reversibility of XO inhibition: inhibitor 0, 5, 10 and 20 mM, XO 0 to 0.1 U/mL, xanthine 0.4 mM, 37 °C 30 min, pH 7.5
Protocol: The plots of ν (ΔOD290nm/min) versus the XO (U/mL) at different concentrations of the inhibitors (peptides) were constructed to determine the reversibility of inhibitory behavior on XO [29]. All samples were dissolved in 20 mM sodium carbonate buffer (pH 7.5). Inhibitor solution (0, 5, 10 and 20 mM) and XO solution (from 0 to 0.1 U/mL) were mixed and incubated at 37 °C for 30 min, and the concentration of the substrate xanthine was kept constant at 0.4 mM. The absorbance at 290 nm was then determined. ν is the initial enzymatic reaction rate of the reaction, which was investigated using the same method for the XO inhibitory activity assay.
The type of the inhibition of XO activity by the inhibitors (peptides) was investigated using Lineweaver and Burk kinetic analysis. It was performed via evaluating the initial rate of reaction in the presence and absence of inhibitors at different xanthine concentration. Briefly, the peptide (0 and 5 mM) and XO (0.05 U/mL) were mixed and incubated in the buffer (20 mM sodium carbonate buffer, pH 7.5) for 30 min at 37 °C. Subsequently, different xanthine concentrations (0, 0.05, 0.1, 0.2 and 0.4 mM) were successively added into the solutions. Then, the dynamic changes of the absorbance at 290 nm were recorded, and ν was calculated using the same method above. Km and Vmax values, as corresponding kinetic parameters, were obtained from the Lineweaver and Burk double reciprocal plots.

[4] = molecular target: Xanthine oxidase (UniProt P80457)
Xanthine oxidase, sequence (P80457 2-1332): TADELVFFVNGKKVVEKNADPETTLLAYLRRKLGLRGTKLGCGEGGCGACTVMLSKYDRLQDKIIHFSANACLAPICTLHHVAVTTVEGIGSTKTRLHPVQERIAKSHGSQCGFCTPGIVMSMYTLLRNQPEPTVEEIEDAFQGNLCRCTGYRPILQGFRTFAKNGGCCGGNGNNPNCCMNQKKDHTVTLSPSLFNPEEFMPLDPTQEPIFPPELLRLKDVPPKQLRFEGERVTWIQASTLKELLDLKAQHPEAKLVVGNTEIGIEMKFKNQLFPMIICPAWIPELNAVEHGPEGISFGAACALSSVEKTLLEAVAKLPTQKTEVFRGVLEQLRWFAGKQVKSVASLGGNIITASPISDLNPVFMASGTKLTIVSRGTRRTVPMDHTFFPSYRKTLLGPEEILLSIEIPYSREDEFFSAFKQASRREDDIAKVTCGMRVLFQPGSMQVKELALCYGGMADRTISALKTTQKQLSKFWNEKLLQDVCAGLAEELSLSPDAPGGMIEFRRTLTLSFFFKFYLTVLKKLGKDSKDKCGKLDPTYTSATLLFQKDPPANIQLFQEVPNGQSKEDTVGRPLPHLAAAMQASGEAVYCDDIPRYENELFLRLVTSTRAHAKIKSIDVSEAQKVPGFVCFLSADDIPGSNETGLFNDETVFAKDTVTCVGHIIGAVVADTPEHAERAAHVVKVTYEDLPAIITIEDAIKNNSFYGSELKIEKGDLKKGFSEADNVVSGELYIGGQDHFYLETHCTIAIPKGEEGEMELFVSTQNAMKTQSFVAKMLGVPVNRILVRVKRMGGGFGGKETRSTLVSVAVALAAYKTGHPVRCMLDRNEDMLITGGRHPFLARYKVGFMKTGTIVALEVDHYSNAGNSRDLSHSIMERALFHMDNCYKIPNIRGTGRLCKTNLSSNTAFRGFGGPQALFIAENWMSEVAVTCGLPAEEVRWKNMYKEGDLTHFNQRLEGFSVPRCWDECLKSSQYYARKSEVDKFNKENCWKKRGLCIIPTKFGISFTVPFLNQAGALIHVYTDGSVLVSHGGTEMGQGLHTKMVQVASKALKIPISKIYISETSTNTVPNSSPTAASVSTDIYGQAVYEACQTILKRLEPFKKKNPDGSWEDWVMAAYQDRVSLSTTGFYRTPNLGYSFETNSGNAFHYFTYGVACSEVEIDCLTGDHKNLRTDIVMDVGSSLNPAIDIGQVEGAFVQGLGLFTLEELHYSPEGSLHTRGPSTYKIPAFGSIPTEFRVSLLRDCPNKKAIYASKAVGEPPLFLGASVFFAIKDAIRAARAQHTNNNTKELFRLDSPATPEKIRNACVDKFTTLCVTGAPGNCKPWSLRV

[5] = molecular target: Xanthine oxidase (UniProt P80457); experiment: other fluorescence titration; quenching of the intrinsic fluorescence of XO (2 mL, 0.05 U/mL) titrated with peptide to 0-20.0 x 10^-4 M; equilibrated 5 min; excitation 280 nm, emission 300-500 nm; 298 K; Stern-Volmer analysis

B1: FPFP (peptide)
peptide: FPFP
XO inhibitory activity (%) at 5 mM peptide (rate of uric acid formation, absorbance at 290 nm) [4]: 20.1%
Kq (quenching rate constant) [5]: 5.61e+11 M⁻¹ s⁻¹
Ksv (Stern-Volmer quenching constant) [5]: 5610 M⁻¹

B2: FPSV (peptide)
peptide: FPSV
XO inhibitory activity (%) at 5 mM peptide (rate of uric acid formation, absorbance at 290 nm) [4]: 22.6%
Kq (quenching rate constant) [5]: 5.42e+10 M⁻¹ s⁻¹
Ksv (Stern-Volmer quenching constant) [5]: 542 M⁻¹

B3: WPDGR (peptide)
peptide: WPDGR
XO inhibitory activity (%) at 5 mM peptide (rate of uric acid formation, absorbance at 290 nm) [4]: 16.2%

B4: KGFP (peptide)
peptide: KGFP
XO inhibitory activity (%) at 5 mM peptide (rate of uric acid formation, absorbance at 290 nm) [4]: 5.43%

The remaining lines, values ahead:

XO Inhibitory Activity (%) [1]: 20.09 ± 2.41 ^a %
Kq (quenching rate constant) [2]: 5.608e+11 M⁻¹ s⁻¹
Ksv (Stern-Volmer quenching constant) [2]: 5608 M⁻¹
fluorescence quenching mechanism of XO [2]: static
type of XO inhibition [3]: mixed inhibitor
reversibility of XO inhibition [3]: reversible
Molecule: FPFP [tetrapeptide identified from round scad hydrolysate fraction F2, chemically synthesized]

XO Inhibitory Activity (%) [1]: 22.61 ± 1.81 ^a %
Kq (quenching rate constant) [2]: 5.42e+10 M⁻¹ s⁻¹
Ksv (Stern-Volmer quenching constant) [2]: 542 M⁻¹
fluorescence quenching mechanism of XO [2]: static
type of XO inhibition [3]: mixed inhibitor
reversibility of XO inhibition [3]: reversible
Molecule: FPSV [tetrapeptide identified from round scad hydrolysate fraction F2, chemically synthesized]

XO Inhibitory Activity (%) [1]: 5.43 ± 0.20 ^c %
Molecule: KGFP [tetrapeptide identified from round scad hydrolysate fraction F2, chemically synthesized]

XO Inhibitory Activity (%) [1]: 16.21 ± 0.78 ^b %
Molecule: WPDGR [pentapeptide identified from round scad hydrolysate fraction F2, chemically synthesized]

From publication PMC8538066, “Purification and Identification of Novel Xanthine Oxidase Inhibitory Peptides Derived from Round Scad (Decapterus maruadsi) Protein Hydrolysates” (Marine Drugs, 2021)
